Reference: publication PMC9059126, “Structure-Based Design of a Novel Class of Autotaxin Inhibitors Based on Endogenous Allosteric Modulators” (Journal of Medicinal Chemistry, 2022)
Where two headings read alike, the source gives them in different places.

Assays:
[1] = tested on: ATX; settings: cited from earlier work
[2] = target: T1, ATX (Rattus norvegicus, UniProt Q64610); assay: Choline oxidase-coupled choline-release assay of LPC hydrolysis by ATX
[3] = tested on: ATX tunnel; parameters: method as in PMID 27075612; settings: partial non-competitive modulators; cited from earlier work
[4] = tested on: LPA1-HA-expressing HeLa-Flp-In cells; assay: Confocal microscopy for LPA1 internalization; assay type: cell-based, Human; settings: 1 μM 18:1 LPC, 20 nM ATX, 15 min
Protocol: Human LPA1 cDNA was amplified by PCR to remove its stop codon and add the restriction sites for BamHI and XhoI, after which it was subcloned in an in-house produced pDNA5.1-HA vector. 0.2 μg of the resulting vector and 1.8 μg of pOG44 Flp-Recombinase Expression Vector (Invitrogen) were incubated with 6 μL of Fugene6 (Invitrogen) in 200 μL of OptiMEM (Gibco) for 30 min, after which the mix was added to previously produced HeLa-Flp-In cells.[43] Their medium was refreshed 24 h later, and selection with 1 μg/mL puromycin was started and maintained with resistant cells.
Serum-starved LPA1-HA-expressing HeLa-Flp-In cells cultured on 24 mm (#1,5) were treated with 1 μM LPC and 20 nM ATX in the presence or absence of 22 or 23 for 15 min in DMEM containing 0.05% fatty acid-free BSA. Subsequently, coverslips were washed and fixed with 4% PFA, permeabilized with 0.1% Triton X-100, and blocked with 2% BSA for 1 h. Incubation with anti-HA antibody (3F10 from Roche Diagnostics; 1:200) was done for 1 h, followed by incubation with donkey anti-rat Alexa Fluor 488-conjugated antibody (A-21208 from Invitrogen; 1:200) for 1 h at room temperature. For confocal microscopy, cells were washed with PBS, mounted with Immnuno-MountTM (Thermo Scientific), visualized on a LEICA TCS-SP5 confocal microscope (63× objective), and analyzed using ImageJ software.

[5] = tested on: BJeH fibroblasts; assay: AKT and ERK phosphorylation by western blotting; assay type: cell-based; settings: Homo sapiens, 0.25 h, 15 min; for EC50: BJeH cells, 20 nM ATX, 1 μM 18:1 LPC, read-out: EC50 (P-AKT and P-ERK levels); for Emax: BJeH, compared to uninhibited ATX incubated with LPC, read-out: reduction of maximal effective cell response (P-AKT and P-ERK)
Protocol: 100,000 BJeH cells were seeded in 12-well tissue culture plates and allowed to grow for 24 h in DMEM (GIBCO, Life Technologies) containing 10% FCS (Thermo Scientific) and 100 U mL^–1 streptomycin/penicillin (GIBCO, Life Technologies). Next, they were washed twice with phosphate-buffered saline (PBS) and serum-starved O/N. ATX 20 nM was incubated with inhibitors for 30 min in a serum-free medium containing 0.05% (w/v) fatty acid-free BSA (total volume 1 mL). The medium from the 12-well plates was removed and replaced with 1 mL of the ATX–inhibitor mixture. Cells were stimulated for 15 min, the medium was removed, and plates were immediately frozen on dry ice and stored at −80 °C. For western blotting, cells were washed with cold PBS; lysed in RIPA buffer; supplemented with protease inhibitors (Pierce), 20 mM NaF and 1 mM orthovanadate; and spun down. The protein concentration was measured using a BCA protein assay kit (Pierce), and LDS sample buffer (NuPAGE, Invitrogen) and 1 mM dithiothreitol were added to the lysate. 20 μg of the total protein was loaded on sodium dodecyl sulfate–polyacrylamide gel electrophoresis pre-cast gradient gels (4–12% Nu-Page Bis-Tris, Invitrogen), followed by transfer to a nitrocellulose membrane. Non-specific protein binding was blocked by 5% BSA in PBS-Tween (0.1%); the primary antibodies were phospho-Akt (Ser473), catalogue number: D93, dilution: 1:1,000; phospho-ERK1/2 (Thr202/Tyr204), catalogue number: D13.14.4E, dilution: 1:2,000, from Cell Signaling Technology. They were incubated O/N at 4 °C in PBS–Tween with 5% BSA, containing 0.1% NaN3. Blots were then incubated for 1 h at room temperature with monoclonal anti-β-actin antibody, clone AC-15, dilution: 1:10,000, from Sigma, which was dissolved in PBS–Tween with 5% skimmed milk containing 0.1% NaN3. HRP-conjugated secondary antibodies [goat anti-mouse (Bio-Rad), catalogue number: 1721011; goat anti-rabbit (Pierce), catalogue number: 1858415] were incubated for 1 h at room temperature in PBS–Tween with 2.5% BSA and developed using an ECL Western blot reagent.

[6] = target: T1, ATX; assay: Competition with LPA allostery (LPA-mediated activation of ATX); assay type: biochemical; parameters: made in house; settings: inhibitor at concentrations close to or lower than IC50; 150 μM 18:1 LPC, 18:1 LPA, 20 nM ATX
Protocol: The activation assays using LPA were performed in a similar way to those done for the inhibitors. In this case, LPA was dissolved in ethanol/H20 (1:1) and 0.01% TX-100 and was added to the reaction buffer. The presence of ethanol was taken into account, and controls in the absence of ATX and/or LPC were employed to correct the kinetic data. ATX was incubated for 30 min with different concentrations of inhibitors and subsequently added to the reaction buffer containing 150 μM 18:1 LPC and different starting concentrations of 18:1 LPA. The slopes were calculated from at least 60 min after the addition of ATX. The percentage of LPA-driven activation was normalized to ATX in the absence of LPA and inhibitors, which represented 100% activity. Last, the activation constant or AC50 was obtained from the following equation [drawing 2] 2

[7] = target: T1, ATX; assay: Mechanistic studies: mode of inhibition and Ki from LPC titration; assay type: biochemical; parameters: made in house; settings: for percentage of competitive versus non-competitive inhibition: Akaike's informative criteria; for mode of inhibition: LPC hydrolysis; for Ki: LPC titration at increasing inhibitor concentrations, Michaelis-Menten nonlinear regression; for α (partial mixed inhibition model): α > 1 competitive, α = 1 non-competitive
Protocol: The biochemical studies of ATX lysoPLD activity were performed with ATX. Activity was measured by a coupled reaction with 1 U mL^–1 choline oxidase and 2 U mL^–1 horseradish peroxidase (HRP) and 2 mM homovanillic acid (HVA) (all from Sigma-Aldrich). For the assays, 14:0, 16:0, 18:1, and 20:0 LPC (Avanti Polar Lipids Inc.) were incubated with 20 nM ATX, reaching a final volume of 100 μL of the buffer, which contained 50 mM Tris, 0.01%, 50 mM CaCl2, Triton X-100, pH 7.4. Steady-state choline release was measured at 37 °C by HVA fluorescence at λex/λem = 320/460 nm in Corning 96- or 384-well OptiPlate (Sigma-Aldrich) and with a Pherastar plate reader (BMG Labtech). […] The resulting fluorescence intensity signal over time was used to model all inhibitor concentrations simultaneously using the following formula, where vmax and vmin were fitted for the minimum and maximum relative velocities, respectively, and ci corresponds to the inhibitor concentration for each assay[20] [drawing 1] 1
To statistically determine the chance of each type of inhibition, we calculated the α value in the partial mixed inhibition model (eq 5), where Part defines the partiality of the inhibition, and α > 1 or α = 1 correspond to competitive and non-competitive inhibition modes, respectively. Last, we utilized Akaike’s Information Criterion[42] to assess the significance of the analysis [drawing 5] 5

[8] = tested on: MDA-MB-231 cells; assay: Boyden chamber cell migration assay; assay type: cell-based; settings: migration for 4 h; for EC50: 20 nM ATX, 1 μM 18:1 LPC
Protocol: Migration of MDA-MB-231 cells was performed using 48-well chemotaxis chambers (Neuro Probe, Inc.) equipped with […] pore polycarbonate membranes, which were coated with fibronectin (10 μg/mL) (F1141, Sigma-Aldrich). Cells (2 × 10^6 cells/mL) were added to the upper chamber. 0.05% fatty acid-free BSA was used as a lysophospholipid carrier. Cells were allowed to migrate for 4 h at 37 °C in humidified air containing 5% CO2. Migrated cells were fixed in Diff-Quik Fix and stained using Diff-Quik II. Migration was quantified by color intensity measurements using Photoshop software.

[9] = 14:0 LPC, 150 μM LPC, 20 nM ATX
[10] = 16:0 LPC, 150 μM LPC, 20 nM ATX
[11] = 18:1 LPC, 150 μM LPC, 20 nM ATX
[12] = 20:0 LPC, 150 μM LPC, 20 nM ATX
[13] = 20:0 LPC, 150 μM LPC, 20 nM ATX, % of catalytic rate of inhibitor-free control
[14] = LPC hydrolysis assay, 20 nM ATX

2-[[2-Ethyl-6-[4-[2-(3-hydroxyazetidin-1-yl)-2-oxoethyl]piperazin-1-yl]-8-methylimidazo[1,2-a]pyridin-3-yl]methylamino]-4-(4-fluorophenyl)thiazole-5-carbonitrile [Compound 3]
IC50 [1]: 0.131 µM

C[C@H](CCC(=O)O)[C@H]1CC[C@H]2[C@@H]3[C@@H](O)C[C@@H]4C[C@H](O)CC[C@]4(C)[C@H]3CC[C@]12C [Compound 9, ursodeoxycholic acid, reference compound]
IC50 [2]: 9 µM
affinity for the ATX tunnel [3]: micromolar

C[C@H](CCC(=O)N1CCC(Oc2ccc([B-](F)(F)F)cc2)CC1)[C@H]1CC[C@H]2C3[C@@H](O)C[C@@H]4C[C@H](O)CC[C@]4(C)[C@H]3CC[C@]12C.[K+] (stereo partly drawn) [Compound 22]
IC50 [2, 9]: 0.084 µM
Residual Activity (%) [2, 9]: 1%
IC50 [2, 10]: 0.072 µM
Residual Activity (%) [2, 10]: 12%
IC50 [2, 11]: 0.045 µM
Residual Activity (%) [2, 11]: 5%
IC50 [2, 12]: 0.032 µM
Residual Activity (%) [2, 13]: 49%
IC50 [2, 14]: 0.05 µM
Residual Activity (%) [2, 14]: 0%
decrease of LPA1 internalization [4]: approximately 75%
EC50 [5]: ~0.1 µM
Emax [5]: ~60%
LPA-mediated activation of ATX activity [6]: dose-dependent decrease
percentage of competitive versus non-competitive inhibition [7]: 99%
mode of inhibition [7]: competitive
Ki [7]: 0.024 ± 0.004 µM
α (partial mixed inhibition model) [7]: 9.7

C[C@H](CCC(=O)N1CCC(Oc2ccc(B(O)O)cc2)CC1)[C@H]1CC[C@H]2C3[C@@H](O)C[C@@H]4C[C@H](O)CC[C@]4(C)[C@H]3CC[C@]12C (stereo partly drawn) [Compound 23]
IC50 [2, 9]: 0.054 µM
Residual Activity (%) [2, 9]: 0%
IC50 [2, 10]: 0.034 µM
Residual Activity (%) [2, 10]: 12%
IC50 [2, 11]: 0.029 µM
Residual Activity (%) [2, 11]: 7%
IC50 [2, 12]: 0.033 µM
Residual Activity (%) [2, 13]: 51%
IC50 [2, 14]: 0.03 µM
Residual Activity (%) [2, 14]: 0%
decrease of LPA1 internalization [4]: approximately 75%
EC50 [5]: ~0.06 µM
Emax [5]: ~60%
LPA-mediated activation of ATX activity [6]: dose-dependent decrease
EC50 ([8]; Homo sapiens, MDA-MB-231, 4 h): 0.186 ± 0.099 µM
EC50 [8]: ~0.2 µM
reduction of cell migration ([8]; ATX + LPC): ~50%
percentage of competitive versus non-competitive inhibition [7]: 99%
mode of inhibition [7]: competitive
Ki [7]: 0.009 ± 0.001 µM
α (partial mixed inhibition model) [7]: 8.5
